Reference: patent US20080299188A1, “CONTROLLED RELEASE DOSAGE FORMS COMBINING IMMEDIATE RELEASE AND SUSTAINTED RELEASE OF LOW-SOLUBILITY DRUG” (Pfizer Inc., priority 2007, published 2008)
Where a name gives a salt, the structure may show the parent alone.

Key:
Assay type in all cases: physicochemical
[1] = microcentrifuge dissolution test in MFD solution; conditions: during the initial ninety minutes
Method: Microcentrifuge dissolution tests were performed to evaluate the hydrochloride crystalline salt form of ziprasidone to verify that it was a solubility-improved form of ziprasidone. For this test, a sufficient amount of ziprasidone hydrochloride monohydrate was added to a microcentrifuge test tube so that the concentration of ziprasidone would have been 200 μgA/mL, if all of the ziprasidone had dissolved. The tests were run in duplicate. The tubes were placed in a 37° C. temperature-controlled chamber, and 1.8 mL MFD solution at pH 6.5 and 290 mOsm/kg was added to each respective tube. The samples were quickly mixed using a vortex mixer for about 60 seconds. The samples were centrifuged at 13,000 G at 37° C. for 1 minute prior to collecting a sample. The resulting supernatant solution was then sampled and diluted 1:5 (by volume) with methanol. Samples were analyzed by high-performance liquid chromatography (HPLC) at a UV absorbance of 315 nm using a Zorbax RxC8 Reliance column and a mobile phase consisting of 55% (50 mM potassium dihydrogen phosphate, pH 6.5)/45% acetonitrile. Drug concentration was calculated by comparing UV absorbance of samples to the absorbance of drug standards. The contents of each tube were mixed on the vortex mixer and allowed to stand undisturbed at 37° C. until the next sample was taken. Samples were collected at 4, 10, 20, 40, 90, and 1200 minutes following administration to the MFD solution.
A similar test was performed with the crystalline ziprasidone free base as a control, and a sufficient amount of material was added so that the concentration of compound would have been 200 μgA/mL, if all of the ziprasidone had dissolved.
The concentrations of ziprasidone obtained in these tests were used to determine the maximum dissolved concentration of ziprasidone (“MDC90”) and the area under the concentration-versus-time curve (“AUC90”) during the initial ninety minutes.

[2] = solubility in phosphate buffered saline (pH 6.5); conditions: expressed as the free base
From the text: An example of a drug having a crystalline highly soluble salt form is ziprasidone. Ziprasidone hydrochloride monohydrate has a solubility of about 10 μgA/mL (expressed as the free base) in phosphate buffered saline (pH 6.5), whereas the free base form has a solubility of less than about 0.2 μgA/mL under the same conditions. Thus, crystalline ziprasidone hydrochloride is a solubility-improved form relative to the crystalline free base form of drug.

[3] = in vitro membrane permeation test
Method: The ziprasidone coated crystals were evaluated in vitro using a membrane permeation test. An Accurel® PP 1E microporous polypropylene membrane was obtained from Membrana GmbH (Wuppertal, Germany). The membrane was washed in isopropyl alcohol and rinsed in methanol in a sonicating bath for 1 minute at ambient temperature, and then allowed to air dry at ambient temperature. The feed side of the membrane was then plasma-treated to render it hydrophilic by placing a sample of the membrane in a plasma chamber. The atmosphere of the plasma chamber was saturated with water vapor at a pressure of 550 mtorr. A plasma was then generated using radio frequency (RF) power inductively coupled into the chamber via annular electrodes at a power setting of 50 watts for 45 seconds. The contact angle of a drop of water placed on the surface of the plasma-treated membrane was about 40°. […]
To form the feed solution, a 1.39 mg sample of the coated crystals was weighed into the feed reservoir. […] Samples were then diluted in […] IPA and analyzed using HPLC. […]
The maximum flux of drug across the membrane (in units of mgA/cm^2-min) was determined by performing a least-squares fit to the data in Table 3 from 0 to 60 minutes to obtain the slope, multiplying the slope by the permeate volume (5 ml), and dividing by the membrane area (4.9 cm^2).

Structure (SMILES)	AUC90 (area under the concentration-versus-time curve) [1]	MDC90 (maximum dissolved concentration of ziprasidone) [1]	solubility ([2]; listed as free base form)	AUC90 (area under the concentration-versus-time curve) ([1]; hydrochloride monohydrate)	MDC90 (maximum dissolved concentration of ziprasidone) ([1]; hydrochloride monohydrate)	solubility ([2]; hydrochloride monohydrate)	Concentration (permeate solution) ([3]; feed MFD solution 100 μgA/ml if all dissolved, permeate 60 wt % decanol in decane, 37° C., time 0 min)	Initial Flux of Ziprasidone ([3]; least-squares fit of Table 3 data from 0 to 60 minutes, permeate volume 5 ml, membrane area 4.9 cm^2)
O=C1Cc2cc(CCN3CCN(c4nsc5ccccc45)CC3)c(Cl)cc2N1 [Ziprasidone Free Base, ziprasidone]	120 min·µgA/mL	2 µgA/mL	less than 0.2 μgA/mL					
O=C1Cc2cc(CCN3CCN(c4nsc5ccccc45)CC3)c(Cl)cc2N1 [Ziprasidone hydrochloride monohydrate, ziprasidone hydrochloride monohydrate]				1700 min·µgA/mL	22 µgA/mL	about 10 μgA/mL	0.5 μgA/ml	0.16 µgA/cm²·min
